Experimental data reported in the kinase profiling compilation of Christmann-Franck et al. (2016).

Legend:
NEK9 (human) = NEK9 (human) (UniProt Q8TD19)
TEC (human) = TEC (human) (UniProt P42680)
EPHA4 (human) = EPHA4 (human) (UniProt P54764)
GAK (human) = GAK (human) (UniProt O14976)
MAP3K11 (human) = MAP3K11 (human) (UniProt Q16584)
IKBKE (human) = IKBKE (human) (UniProt Q14164)
SYK (human) = SYK (human) (UniProt P43405)
AAK1 (human) = AAK1 (human) (UniProt Q2M2I8)
MAP2K1 (human) = MAP2K1 (human) (UniProt Q02750)

Measured: IC50

EPHA4 (human), sequence (P54764 whole entry, looked up): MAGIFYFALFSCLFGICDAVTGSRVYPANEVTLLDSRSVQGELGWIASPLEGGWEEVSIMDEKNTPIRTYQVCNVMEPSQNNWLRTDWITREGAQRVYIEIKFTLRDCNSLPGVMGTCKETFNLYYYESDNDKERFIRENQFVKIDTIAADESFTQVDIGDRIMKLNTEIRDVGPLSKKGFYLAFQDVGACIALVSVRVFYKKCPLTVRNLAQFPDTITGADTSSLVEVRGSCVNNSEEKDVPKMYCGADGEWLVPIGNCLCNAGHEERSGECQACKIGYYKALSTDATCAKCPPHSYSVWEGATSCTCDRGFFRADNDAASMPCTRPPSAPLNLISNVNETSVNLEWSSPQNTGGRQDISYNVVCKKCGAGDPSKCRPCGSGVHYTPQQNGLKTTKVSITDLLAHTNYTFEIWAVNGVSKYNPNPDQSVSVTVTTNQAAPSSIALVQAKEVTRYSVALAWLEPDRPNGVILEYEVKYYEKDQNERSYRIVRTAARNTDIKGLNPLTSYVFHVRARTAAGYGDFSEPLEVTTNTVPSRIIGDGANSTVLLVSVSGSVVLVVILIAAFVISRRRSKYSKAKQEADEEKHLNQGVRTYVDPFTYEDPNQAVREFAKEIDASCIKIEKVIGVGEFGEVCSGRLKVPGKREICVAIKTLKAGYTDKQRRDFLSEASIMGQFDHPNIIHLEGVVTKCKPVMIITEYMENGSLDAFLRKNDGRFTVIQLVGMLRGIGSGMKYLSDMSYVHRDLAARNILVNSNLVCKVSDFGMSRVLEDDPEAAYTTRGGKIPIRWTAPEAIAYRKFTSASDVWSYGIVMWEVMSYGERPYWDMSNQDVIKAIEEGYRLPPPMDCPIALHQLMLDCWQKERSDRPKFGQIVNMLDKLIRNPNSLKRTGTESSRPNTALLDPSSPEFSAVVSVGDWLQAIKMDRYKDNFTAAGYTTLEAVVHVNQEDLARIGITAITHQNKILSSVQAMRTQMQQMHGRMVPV
MAP3K11 (human), sequence (Q16584 whole entry, looked up): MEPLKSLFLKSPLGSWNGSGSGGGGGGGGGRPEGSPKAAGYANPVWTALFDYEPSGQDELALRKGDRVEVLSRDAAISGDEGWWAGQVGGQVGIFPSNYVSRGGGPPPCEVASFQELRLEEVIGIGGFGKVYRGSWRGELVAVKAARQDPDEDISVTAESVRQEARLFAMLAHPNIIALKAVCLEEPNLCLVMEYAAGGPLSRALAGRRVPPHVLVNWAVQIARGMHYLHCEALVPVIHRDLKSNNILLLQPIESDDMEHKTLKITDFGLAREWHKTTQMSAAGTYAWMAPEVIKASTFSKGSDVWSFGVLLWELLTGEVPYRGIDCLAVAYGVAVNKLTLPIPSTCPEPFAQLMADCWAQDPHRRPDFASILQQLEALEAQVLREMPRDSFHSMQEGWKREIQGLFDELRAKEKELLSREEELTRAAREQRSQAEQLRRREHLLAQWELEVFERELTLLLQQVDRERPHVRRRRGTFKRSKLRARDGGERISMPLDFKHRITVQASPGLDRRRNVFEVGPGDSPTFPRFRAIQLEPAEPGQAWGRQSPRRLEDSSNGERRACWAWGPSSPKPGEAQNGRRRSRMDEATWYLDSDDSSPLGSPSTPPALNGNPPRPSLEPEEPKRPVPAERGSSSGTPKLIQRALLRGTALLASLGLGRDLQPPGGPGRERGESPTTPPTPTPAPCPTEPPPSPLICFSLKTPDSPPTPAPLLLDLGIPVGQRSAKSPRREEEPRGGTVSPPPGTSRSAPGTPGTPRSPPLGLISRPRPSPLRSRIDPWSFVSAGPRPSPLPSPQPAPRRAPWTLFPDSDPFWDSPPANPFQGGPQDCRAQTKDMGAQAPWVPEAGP
IKBKE (human), sequence (Q14164 whole entry, looked up): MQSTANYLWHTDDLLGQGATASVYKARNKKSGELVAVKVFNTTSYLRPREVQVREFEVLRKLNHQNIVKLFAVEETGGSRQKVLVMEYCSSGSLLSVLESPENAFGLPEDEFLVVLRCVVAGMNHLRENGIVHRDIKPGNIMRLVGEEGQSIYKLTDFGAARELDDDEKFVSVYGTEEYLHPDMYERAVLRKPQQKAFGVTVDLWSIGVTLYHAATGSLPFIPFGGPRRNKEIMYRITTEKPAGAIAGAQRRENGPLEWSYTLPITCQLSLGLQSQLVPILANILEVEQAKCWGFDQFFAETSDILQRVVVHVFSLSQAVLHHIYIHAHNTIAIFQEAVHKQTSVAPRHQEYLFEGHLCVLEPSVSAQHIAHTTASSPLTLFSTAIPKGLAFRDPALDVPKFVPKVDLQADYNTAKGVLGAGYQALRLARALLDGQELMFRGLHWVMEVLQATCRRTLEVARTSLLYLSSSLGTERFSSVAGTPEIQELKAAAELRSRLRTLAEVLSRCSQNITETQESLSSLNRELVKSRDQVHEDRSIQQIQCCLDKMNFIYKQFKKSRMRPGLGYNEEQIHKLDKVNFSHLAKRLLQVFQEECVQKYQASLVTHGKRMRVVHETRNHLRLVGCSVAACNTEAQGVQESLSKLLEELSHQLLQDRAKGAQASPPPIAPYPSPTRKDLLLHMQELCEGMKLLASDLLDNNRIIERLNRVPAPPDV
AAK1 (human), sequence (Q2M2I8 whole entry, looked up): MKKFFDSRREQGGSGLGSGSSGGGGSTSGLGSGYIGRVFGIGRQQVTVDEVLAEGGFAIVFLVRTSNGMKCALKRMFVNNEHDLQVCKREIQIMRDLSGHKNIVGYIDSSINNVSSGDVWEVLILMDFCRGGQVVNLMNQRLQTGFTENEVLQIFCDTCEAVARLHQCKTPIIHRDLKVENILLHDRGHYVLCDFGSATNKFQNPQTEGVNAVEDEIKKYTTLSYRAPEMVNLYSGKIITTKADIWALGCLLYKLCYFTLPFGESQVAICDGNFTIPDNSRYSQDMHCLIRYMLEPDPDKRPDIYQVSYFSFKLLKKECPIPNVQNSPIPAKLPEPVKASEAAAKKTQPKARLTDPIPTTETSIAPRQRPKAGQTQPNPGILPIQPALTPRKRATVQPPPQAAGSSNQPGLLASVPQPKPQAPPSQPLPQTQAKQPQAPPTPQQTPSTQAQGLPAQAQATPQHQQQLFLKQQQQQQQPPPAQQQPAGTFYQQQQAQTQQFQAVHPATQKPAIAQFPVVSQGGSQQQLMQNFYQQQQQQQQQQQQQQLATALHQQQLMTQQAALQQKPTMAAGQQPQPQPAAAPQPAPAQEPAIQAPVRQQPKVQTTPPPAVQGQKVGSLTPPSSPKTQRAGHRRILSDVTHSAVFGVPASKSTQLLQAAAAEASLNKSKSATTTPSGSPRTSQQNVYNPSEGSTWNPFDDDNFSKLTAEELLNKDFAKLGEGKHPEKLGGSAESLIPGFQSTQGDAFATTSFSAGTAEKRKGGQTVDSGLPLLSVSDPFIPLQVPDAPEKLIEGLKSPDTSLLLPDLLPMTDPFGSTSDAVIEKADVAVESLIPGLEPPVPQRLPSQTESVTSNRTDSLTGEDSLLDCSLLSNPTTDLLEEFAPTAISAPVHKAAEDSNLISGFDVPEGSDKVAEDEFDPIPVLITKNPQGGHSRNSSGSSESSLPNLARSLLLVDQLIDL
MAP2K1 (human), sequence (Q02750 whole entry, looked up): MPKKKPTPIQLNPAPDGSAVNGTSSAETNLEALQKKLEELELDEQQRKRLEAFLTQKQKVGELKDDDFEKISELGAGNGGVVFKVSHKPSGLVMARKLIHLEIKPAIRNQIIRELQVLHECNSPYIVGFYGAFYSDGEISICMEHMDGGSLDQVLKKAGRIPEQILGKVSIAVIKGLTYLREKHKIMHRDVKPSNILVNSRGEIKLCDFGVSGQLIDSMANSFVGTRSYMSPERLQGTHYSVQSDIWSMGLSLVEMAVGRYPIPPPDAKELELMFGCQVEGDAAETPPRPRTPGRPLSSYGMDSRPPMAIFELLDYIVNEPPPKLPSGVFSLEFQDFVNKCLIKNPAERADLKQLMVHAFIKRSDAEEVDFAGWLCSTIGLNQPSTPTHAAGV
NEK9 (human), sequence (Q8TD19 whole entry, looked up): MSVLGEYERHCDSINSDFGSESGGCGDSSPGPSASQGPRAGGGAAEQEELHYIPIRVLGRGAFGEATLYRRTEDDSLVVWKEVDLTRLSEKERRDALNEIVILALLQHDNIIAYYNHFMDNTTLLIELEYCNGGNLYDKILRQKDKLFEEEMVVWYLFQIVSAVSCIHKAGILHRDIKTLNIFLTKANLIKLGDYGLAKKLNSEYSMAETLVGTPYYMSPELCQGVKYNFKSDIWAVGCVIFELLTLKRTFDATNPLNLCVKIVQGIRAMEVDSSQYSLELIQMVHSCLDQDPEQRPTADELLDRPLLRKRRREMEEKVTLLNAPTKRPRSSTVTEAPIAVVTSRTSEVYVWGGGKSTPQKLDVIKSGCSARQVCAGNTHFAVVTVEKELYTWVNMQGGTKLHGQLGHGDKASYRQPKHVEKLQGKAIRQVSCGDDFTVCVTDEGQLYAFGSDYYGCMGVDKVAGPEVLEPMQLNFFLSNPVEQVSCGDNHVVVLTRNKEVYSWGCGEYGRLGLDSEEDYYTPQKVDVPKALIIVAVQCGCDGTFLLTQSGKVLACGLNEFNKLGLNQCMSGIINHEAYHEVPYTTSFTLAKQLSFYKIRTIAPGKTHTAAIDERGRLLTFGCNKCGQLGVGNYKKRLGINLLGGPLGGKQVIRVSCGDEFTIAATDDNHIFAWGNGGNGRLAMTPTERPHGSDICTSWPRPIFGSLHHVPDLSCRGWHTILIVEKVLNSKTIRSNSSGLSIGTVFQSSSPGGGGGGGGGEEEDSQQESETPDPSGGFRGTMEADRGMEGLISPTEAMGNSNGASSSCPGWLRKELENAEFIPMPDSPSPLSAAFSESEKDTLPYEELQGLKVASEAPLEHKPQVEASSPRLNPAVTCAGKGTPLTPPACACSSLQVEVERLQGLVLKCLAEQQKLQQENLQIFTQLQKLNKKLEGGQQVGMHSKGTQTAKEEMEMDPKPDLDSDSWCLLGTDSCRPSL

CN1CC[C@H](c2c(O)cc(O)c3c(=O)cc(-c4ccccc4Cl)oc23)[C@H](O)C1
> 10 µM: all assays above
